Data: article PMC5664379 (2017)

Test system: G4 DNA [(CG3)2CGC(AG3)2G] (DNA, G4) CGGGCGGGCGCAGGGAGGGG
Test: UV-vis mole-ratio titration, global fit
Conditions: buffer pH 7.1, 25 °C; intrinsic, two equivalent anticooperative sites, ω 0.43; stepwise fit equally good: 7.07, 5.79

## C[n+]1ccc(-c2c3nc(c(-c4cc[n+](C)cc4)c4ccc([nH]4)c(-c4cc[n+](C)cc4)c4nc(c(-c5cc[n+](C)cc5)c5ccc2[nH]5)C=C4)C=C3)cc1
  lg K1-2: 6.79
